Results from patent publication US10413579B2, “Pharmaceutical composition for preventing or treating asthma comprising Pistacia weinmannifolia J. Poiss. ex Franch extract or fraction thereof” (Korea Research Institute of Bioscience and Biotechnology, priority 2013, dated 2019).

Columns and labels:
Assay type in all cases: in vivo, mouse
serum IgE = experiment: Serum IgE in ovalbumin-sensitized asthma mice (immunoenzymatic assay); conditions: 30 mg/kg PO
Protocol: (§1) In the present experiment, 6-week-old Balb/c female mice having a body weight of about 20 g in average were used as experimental animals. After 1 week of acclimation, animals showing no abnormal findings on physical examination were used as subjects. 2 mg of aluminium hydroxide (A8222, Sigma, St. Louis, Mo.) and 20 μg of ovalbumin (A5503, Sigma, St. Louis, Mo.) were suspended in 200 μl of phosphate buffer (pH 7.4) and then injected into the peritoneal cavity of mouse for sensitization. On days 21 to 23 after the first intraperitoneal administration of ovalbumin, inhalation challenge was performed for 30 min with 1% ovalbumin using an ultrasonic atomizer. 24 hours after the last antigen administration, airway hyperresponsiveness was measured. 48 hours later, a lethal dose of pentobarbital (Entobal, Hanlim Pharmaceutical Co., Ltd.) was administered, body weight measurement and bronchotomy were performed, and bronchoalveolar lavage was performed with a total 1.2 mL of physiological saline, and then, samples were collected. […] Seven white mice were used for each group.
(§2) To measure serum IgE and ovalbumin-specific IgE, an immunoenzymatic assay was used. IgE level was measured using a commercially available kit (Biolegend Ins., California, USA). […] For color development, 3,3′,5,5′-tetramethylbezidine substrate was allowed to react, and the spectroscopic absorbance was measured at 450 nm.

ovalbumin-specific IgE = experiment: Ovalbumin-specific IgE in serum of ovalbumin-sensitized asthma mice (ELISA); conditions: 30 mg/kg PO, mean±S.E.
Protocol: as §1, §2

[1] = test system: ovalbumin-sensitized asthma animal models; experiment: Inflammatory cells in bronchoalveolar lavage fluid of ovalbumin-sensitized asthma mice; conditions: 30 mg/kg PO
Protocol: as §1

interleukin-4 = experiment: Interleukin-4 in bronchoalveolar lavage fluid (ELISA); conditions: 30 mg/kg PO, mean±S.E.
Protocol: as §1, with “group. […]” for “group.”
(§3) Briefly, 100 μl of bronchoalveolar lavage fluid was added to a well plate and allowed to react for 1 hour. […] Absorbance was measured at 450 nm.

interleukin-5 = experiment: Interleukin-5 in bronchoalveolar lavage fluid (ELISA); conditions: 30 mg/kg PO, mean±S.E.
Protocol: as §1, with “group. […]” for “group.”
as §3

interleukin-13 = experiment: Interleukin-13 in bronchoalveolar lavage fluid (ELISA); conditions: 30 mg/kg PO, mean±S.E.
Protocol: as §1, with “group. […]” for “group.”
as §3

## CC(C)(O)c1ccccc1CC[C@@H](SCC1(CC(=O)O)CC1)c1cccc(/C=C/c2ccc3ccc(Cl)cc3n2)c1 [Mon, montelukast]
Serum IgE
  serum IgE antibody level: 1.8 ± 0.28 µg/mL
Serum IgE; mean±S.E., Table 1
  IgE: 1.8 ± 0.28 ng/mL
ovalbumin-specific IgE
  OVA-specific IgE: 108 ± 83.0 ng/mL
[1]; OVA group (74±16.0)×10^5
  number of eosinophils in bronchoalveolar lavage fluid: 36±20.4 ×10^5
[1]; OVA group (180±22.2)×10^5
  number of total inflammatory cells in bronchoalveolar lavage fluid: 98±19.3 ×10^5
interleukin-4
  IL-4: 34.6 ± 6.52 pg/mL
interleukin-5
  IL-5: 32.4 ± 4.46 pg/mL
interleukin-13
  IL-13: 65.7 ± 18.86 pg/mL
